The nature of data set [1]: Stress sample with oxidant (3% hydrogen peroxide), related substance analysis by HPLC. Format: physicochemical. The note with it: 3% hydrogen peroxide solution, room temperature, 24 hours; HPLC as in Example 1. As for the experimental part: A stress sample stressed using an oxidant was prepared to confirm the production of the related substance. About 35 mg of a (3S)-3-(4-(3-(1,4-dioxaspiro[4,5]dec-7-en-8-yl)benzyloxy)phenyl)hex-4-inoic acid-containing substance stored under refrigerated conditions (5° C.±3° C.) for about 2 years was accurately weighed and put into a 50-ml volume flask. A diluent was added to the flask at about ⅔ of the volume, and the resulting mixture was mixed well. After 2 ml of a 3% hydrogen peroxide solution was added thereto, the resulting mixture was mixed well and marked with a diluent. The stress sample was left to stand at room temperature, and 24 hours later, the related substance was analyzed using HPLC (Agilent Technologies 1200 Series). The related substance was analyzed under the same conditions as in Example 1. As a result, it was confirmed that the related substance was produced from the stress sample (RRT 0.93, Area 3.83%). A comparison of the HPLC data of both samples using the sample of Example 1 as a control is shown in FIG. 4 (blue: control, green: stress sample). It was confirmed that the production of the related substance of Chemical Formula 2 in the stress sample was increased compared to the control.

Data set [2] can be described thus: Related substance analysis by HPLC after refrigerated storage for about 2 years. The format is physicochemical. As to conditions: substance stored under refrigerated conditions (5° C.±3° C.) for about 2 years; for Area %: HPLC 220 nm. On the procedure:
About 35 mg of a (3S)-3-(4-(3-(1,4-dioxaspiro[4,5]dec-7-en yl)benzyloxy)phenyl)hex-4-inoic acid-containing substance stored under refrigerated conditions (5° C.±3° C.) for about 2 years was accurately weighed and put into a 50-ml volume flask, a diluent was added to the flask at about ⅔ of the volume, and the resulting mixture was mixed well. Thereafter, a related substance was analyzed using HPLC (Agilent Technologies 1200 Series).
<HPLC conditions> Operation Parameters
Column: Kinetex EVO C18, 5 um, 4.6×250 mm
Column temperature: 25° C.
Sample concentration: 0.7 mg/ml
Mobile Phase A: 0.01 M K2HPO4 (pH 7)

The conditions of data set [3]: research project title; no test described; cited from earlier work.
The conditions of data set [4]: research project title; no test described; cited from earlier work. This is another data set of the same source.

Take `CC#C[C@@H](CC(=O)O)c1ccc(OCc2cccc(C34CCC5(CC3O4)OCCO5)c2)cc1` (stereo partly drawn) [Chemical Formula 2, (3S)-3-(4-((3-(7-oxaspiro[bicyclo[4.1.0]heptane-3,2′-[1,3]dioxolan]-6-yl)benzyl)oxy)phenyl)hex-4-inoic acid]: in data set [1], the “Area of related substance produced (RRT 0.93)” value is 3.83%. Besides, the Area % in data set [2] is recorded as 0.2566%. In addition, the “Area % of related substance (RRT: 0.93)” value in data set [2] (HPLC) was 0.26%.
For orientation: EC50 means the concentration that produces a half-maximal response. With `CC#C[C@@H](CC(=O)O)c1ccc(OCc2cccc(C3=CCC4(CC3)OCCO4)c2)cc1` [HD-6277], the “hypoglycemic effect (HbA1c)” value in data set [3] is listed as greater than 1%. Besides, the EC50 in data set [4] is less than 1 nM.
Regarding `CC#C[C@@H](CC(=O)O)c1ccc(OCc2cccc(C3=CCC4(CC3)OCCO4)c2)cc1` [Chemical Formula 1, (3S)-3-(4-(3-(1,4-dioxaspiro[4,5]dec-7-en-8-yl)benzyloxy)phenyl)hex-4-inoic acid], the Area % in data set [2] was found to be 98.9289%.

Values taken from US12540142B2, “Method for evaluating quality of (3S)-3-(4-(3-(1,4-dioxaspiro[4,5]dec-7-en-8-yl)benzyloxy)phenyl)hex-4-inoic acid” (Hyundai Pharm Co., Ltd., priority 2020, dated 2026).
